Molecules are shown by their SMILES. Calls of active or inactive are those of the source. The rule behind the calls is not given here.

This is an account of results in ChEMBL document CHEMBL5303711, “ECBD screening data for assay EOS300108” (2023).

The nature of the data set: Cytotoxicity activity against human HepG2 cells assessed by CellTiter-Glo luminescent cell viability assay. It is filed as toxicity, cell-based. Set-up: assay stage confirmatory assay, source tissue liver. Particulars: HepG2 cells, read-out: IC50 relative.
For `CN(Cc1ccccc1)C1=CC(=[N+]2CCCC2)CC(C)(C)C1`, the CC50 was 3.3 µM (active).

Turning to `c1coc(CNc2ncnc3ccccc23)c1`, the CC50 was 9.5 µM (inactive). As for `O=C(Nc1ccc(I)cc1)c1ccc(CN2CCOCC2)cc1`, the figure is 7.7 µM (inactive); as for `Cc1noc(C)c1CC(=O)Nc1nc(-c2ccc(S(=O)(=O)N(C)C)cc2)cs1`, 4.3 µM (active).

As to `COc1ccc(Nc2ssc(=O)c2Cl)cc1OC`, the CC50 was 13.8 µM (active). In the case of `COCCn1cc(C(=O)Nc2nc3ccccc3[nH]2)c2ccccc21`, the CC50 is 11.7 µM (inactive). As for `COc1ccc(-n2ccc(C(=O)Nc3cnccc3C(N)=O)n2)cc1`, the figure is 5.4 µM (active); as for `COc1ccc(CN(Cc2cn3c(C)cccc3n2)C2CC2)c(OC)c1`, 9.7 µM (active). Under `CC(C)Cn1cnc(S(=O)(=O)N2CCC[C@@H]2COc2ccc(F)cc2)c1` stands 8.4 µM (active); under `Cc1nc2ccccc2nc1CSCCCS(=O)(=O)C(C)C`, 0.9 µM (active); under `O[C@H]1C[C@@H](c2cc(N3CCC(Oc4ccccc4Cl)CC3)ncn2)C1`, 5.6 µM (active). Take `CCOc1cccc(N2CCN(c3ncnc4c(F)cccc34)CC2)n1`: the CC50 was 8.3 µM (active). As for `C#CCOC1CCN(C(=O)c2ccc(F)c(Br)c2)CC1`, the figure is 8.6 µM (active); as for `CC(=O)N1N=C(c2ccc(Br)cc2)C[C@H]1c1ccc(O)cc1`, 20.2 µM (inactive). Under `CCc1ccc([N+]2=C3SCCCN3C[C@]2(O)c2ccc(OC)c(OC)c2)cc1` stands 10.9 µM (active). Under `c1ccc(-c2nc3n(n2)Cc2ccccc2-3)cc1` stands 2.7 µM (active). Regarding `Cc1occc1C(=O)NC1CCN(CCC(=O)c2ccccc2)CC1`, the CC50 was 9.5 µM (active). As for `c1nc(N2CCN(Cc3ccc4c(c3)OCO4)CC2)c2ccsc2n1`, the figure is 5.1 µM (active); as for `Cc1ccnn1-c1ccc(C(=O)Nc2cc(N(C)C)ccn2)cc1`, 12.1 µM (active). As for `O=C(c1c[nH]c(-c2ccccn2)c1)c1ccccc1O`, the figure is 12.6 µM (inactive).

Regarding `CCOc1ncccc1C(=O)Nc1nc2cc(C#N)ccc2n1CC`, the CC50 was 5.9 µM (active). Under `Cc1cc(C)n(-c2ccc(C(=O)Nc3ncccc3O)cc2)n1` stands 8.8 µM (active); under `COc1ccc(OC[C@@H](O)CN(C)Cc2ccc(C)o2)c(C(C)(C)C)c1`, 21.3 µM (inactive). Under `CC(C)(C)NC(=O)NC(=O)CNc1ccccc1C(=O)Nc1ccc(F)cc1` stands 50 µM (inactive). With `CCc1nccn1[C@H]1CCCN(CCOc2ccccc2F)C1`, the CC50 is 9.3 µM (active). As for `C[C@@H](c1ccccc1F)N(Cn1ncc(Cl)c(Cl)c1=O)C1CC1`, the figure is 11.4 µM (active); as for `COc1ccc(C(=O)N(C)C)cc1NC(=O)c1ccc2ccccc2n1`, 8.9 µM (active); as for `O=C1CN2C(=C1c1nc3ccccc3s1)NC(=O)c1sccc12`, 3.7 µM (active). Take `ON=C1C[C@@H](c2ccc(Cl)cc2)Oc2ccccc21`: the CC50 was 2.7 µM (active). As for `CCN(Cc1ccc(OC)cc1)Cc1nc2c(F)cccc2[nH]1`, the figure is 10.2 µM (active). As for `Cc1cc([C@H]2CCCN(CC(=O)Nc3nccs3)C2)n[nH]1`, the figure is 6.6 µM (inactive); as for `Cc1cc(NC(=O)N2CC=C(c3c[nH]c4ncccc34)CC2)no1`, 9.2 µM (inactive); as for `C[C@H](O)CN1CCC(CNCc2ccc(Cl)cc2)CC1`, 7.6 µM (active). As for `CC(C)[C@H](NCC(=O)N1CCN(c2ccccn2)CC1)c1ccc(Cl)cc1`, the figure is 8 µM (active); as for `C[C@H](O)CN1CCC(CNCc2cccc(Br)c2)CC1`, 9.4 µM (active); as for `O=C(c1cccc(S(=O)(=O)N2CCOCC2)c1)N1CCN(c2nc3ccccc3s2)CC1`, 5 µM (active). Consider `O=C(Nc1ccc(-c2cn3ccsc3n2)cc1)c1cccc(CO)c1`, for which the CC50 was 6.3 µM (active).

Regarding `Cc1cc(NCCCN2CCC(C)CC2)c2ccccc2n1`, the CC50 was 6.5 µM (active). Take `Cc1ccc(NC(=O)NC[C@@H](C(C)C)N2CCN(C)CC2)cc1Cl`: the CC50 was 11.3 µM (active). Under `CC(C)(CN)c1cccc(-c2cccc(CN)c2)c1` stands 12.3 µM (active); under `Cc1ccccc1Oc1ccnc(CNC(=O)c2nccn2C)c1`, 1.1 µM (active). As for `Cn1cc(S(=O)(=O)N2CCCC2)cc1C(=O)Nc1nc(-c2ccccn2)cs1`, the figure is 6.4 µM (inactive); as for `CCc1cc(N2CCC(NC(=O)N3CCN(c4cccnn4)CC3)CC2)ncn1`, 16.3 µM (inactive).

On to `Nc1ccc2cc3ccc(N)cc3nc2c1`, for which the CC50 was 3.2 µM (active).

For the compound `CON(C)C(=O)CSc1nc2sc(C)c(C)c2c(=O)n1Cc1ccccn1`, the CC50 was 0.6 µM (active). Under `CN(C)c1cc(CNCc2cccc(OCc3ccccn3)c2)ccn1` stands 15.3 µM (inactive); under `CC1(C)CC[C@H](CO)N(CCS(=O)(=O)c2ccc(C#N)cc2)C1`, 11.7 µM (active); under `COc1ccc(CNc2nccn(-c3ccc4c(c3)OCO4)c2=O)cc1OC`, 9.1 µM (inactive). As for `CC(=O)c1ccc(NC(=O)c2cccc3cccnc23)cc1`, the figure is 0.9 µM (active).

In the case of `CN(C(=O)Cn1c(S(C)(=O)=O)nc2ccccc21)c1ccccc1`, the CC50 is 5.1 µM (inactive). As to `O=C(Nc1ccnc2ccnn12)c1ccc2ccccc2n1`, the CC50 is 1.4 µM (active).

Consider `Cc1csc(CCNc2cc(N3CCC[C@@H]3CO)ncn2)n1`, for which the CC50 is 2.4 µM (active). As for `Cc1cc(C(=O)Nc2cc(Cl)ccc2N2CCN(C)CC2)no1`, the figure is 11.9 µM (active); as for `CN(C)C(=O)CO[C@@H]1COCC[C@H]1NC(=O)c1cn(C)c2ccccc12`, 6.3 µM (active); as for `CCN1CCCCC1CNCc1ccc2cc(O)ccc2c1` (stereo unspecified), 11.5 µM (active). Consider `CCOc1ccc(OCCN2CCC[C@H](n3ccnc3CC)C2)cc1`, for which the CC50 is 8.4 µM (active). As for `Cn1cc(-c2nc(C(=O)Nc3cccnc3-n3cncn3)cs2)cn1`, the figure is 2 µM (active); as for `OCC1CCCN(CCNCc2ccc(Cl)c(Cl)c2)C1` (stereo unspecified), 5.7 µM (active). As for `Cc1cc(NC(=O)c2cnn(-c3ccccc3)n2)cc(N2CCN(C)CC2)c1`, the figure is 6.1 µM (active); as for `CCn1c(NC(=O)c2ccc(=O)n(CCOc3ccccc3)n2)nc2ccccc21`, 4.6 µM (active). Under `CN(c1ccccc1)S(=O)(=O)c1ccc(C(=O)N2CCN(CCOc3ccccc3)CC2)cc1` stands 9.1 µM (active); under `O=C(Nc1nc2cc(C(F)(F)F)ccc2[nH]1)C1=COCCO1`, 7.1 µM (active). For `CCc1nccn1[C@H]1CCCN(CCOc2ccc(F)cc2)C1`, the CC50 is 6 µM (active). Under `Cc1c(C(=O)Nc2ncccc2O)oc2ccccc12` stands 1.7 µM (active); under `Cn1nc(C(=O)Nc2ccc(Oc3ccc(F)cc3)cn2)ccc1=O`, 6.7 µM (active). As for `Cc1cc(N2CCC[C@H](c3c[nH]c4ncccc34)C2)n2ncnc2n1`, the figure is 8.5 µM (active).
